Results reported in patent US4459290A, “C-23-Modified derivatives of OMT, pharmaceutical compositions and method of use” (priority 1982, dated 1984).
In brackets after ≈: the same amount, converted by molar mass. Read-outs that look alike come from different tables or passages of the source.

Key:
Escherichia coli EC14 = assay: MIC, standard agar-dilution assay (Table V); assay type: cell-based; details: Escherichia coli; E. coli EC14; agar dilution; read-out: MIC
Method: (§1) Especially noteworthy is the improved activity against gram-negative bacteria for several derivatives when compared to the activity of OMT. […] The MIC's in Tables V and VI were determined by standard agar-dilution assays. The MIC's in Table VII were obtained using a conventional broth-dilution microtiter test.

Escherichia coli N10 = assay: MIC, standard agar-dilution assay (Table V); assay type: cell-based; details: Escherichia coli; E. coli N10; agar dilution; read-out: MIC
Method: as §1

[1] = tested on: Klebsiella pneumoniae KAE; assay: MIC, standard agar-dilution assay (Table V); assay type: cell-based; details: Klebsiella pneumoniae; K. pneumoniae KAE; agar dilution; read-out: MIC
Method: as §1

[2] = tested on: Klebsiella pneumoniae X26; assay: MIC, standard agar-dilution assay (Table V); assay type: cell-based; details: Klebsiella pneumoniae; K. pneumoniae X26; agar dilution; read-out: MIC
Method: as §1

Shigella sonnei N9 = assay: MIC, standard agar-dilution assay (Table V); assay type: cell-based
Method: as §1

[3] = tested on: Staphylococcus aureus S13E; assay: MIC, standard agar-dilution assay (Table V); assay type: cell-based; details: Staphylococcus aureus, S13E
Method: as §1

[4] = tested on: Staphylococcus aureus V41; assay: MIC, standard agar-dilution assay (Table V); assay type: cell-based; details: Staphylococcus aureus, V41
Method: as §1

[5] = tested on: Staphylococcus aureus X1.1; assay: MIC, standard agar-dilution assay (Table V); assay type: cell-based; details: Staphylococcus aureus, X1.1
Method: as §1

[6] = tested on: Staphylococcus aureus X400; assay: MIC, standard agar-dilution assay (Table V); assay type: cell-based; details: Staphylococcus aureus, X400
Method: as §1

[7] = tested on: Staphylococcus epidermidis EPI1; assay: MIC, standard agar-dilution assay (Table V); assay type: cell-based; details: Staphylococcus epidermidis, EPI1
Method: as §1

[8] = tested on: Staphylococcus epidermidis EPI2; assay: MIC, standard agar-dilution assay (Table V); assay type: cell-based; details: Staphylococcus epidermidis, EPI2
Method: as §1

Streptococcus Group 9960 = assay: MIC, standard agar-dilution assay (Table V); assay type: cell-based; details: GROUP9960
Method: as §1

[9] = tested on: Streptococcus Group D X66; assay: MIC, standard agar-dilution assay (Table V); assay type: cell-based
Method: as §1

Escherichia coli TEM = assay: MIC, standard agar-dilution assay (Table V); assay type: cell-based; details: Escherichia coli; E. coli TEM; agar dilution; read-out: MIC
Method: (§2) The MIC's in Tables V and VI were determined by standard agar-dilution assays. The MIC's in Table VII were obtained using a conventional broth-dilution microtiter test.

[10] = tested on: Haemophilus influenzae Holt; assay: MIC, standard agar-dilution assay (Table V); assay type: cell-based; details: Haemophilus influenzae
Method: as §2

[11] = tested on: Haemophilus influenzae R252; assay: MIC, standard agar-dilution assay (Table V); assay type: cell-based; details: Haemophilus influenzae, R252
Method: as §2

[12] = tested on: Streptococcus pyogenes C203; assay: MIC, standard agar-dilution assay (Table V); assay type: cell-based; details: Streptococcus pyogenes, C203
Method: as §2

[13] = tested on: Streptococcus pneumoniae Park I; assay: microbe, parasite or virus in culture; assay type: cell-based; details: Streptococcus pneumoniae
Method: as §1

[14] = tested on: Citrobacter freundii CF17; assay: MIC, standard agar-dilution assay (Table VI); assay type: cell-based; details: C. freundii CF17, agar dilution, read-out: MIC
Method: as §1

[15] = tested on: Enterobacter aerogenes C32; assay: MIC, standard agar-dilution assay (Table VI); assay type: cell-based; details: Klebsiella aerogenes; E. aerogenes C32; agar dilution; read-out: MIC
Method: as §1

[16] = tested on: Enterobacter aerogenes EB17; assay: MIC, standard agar-dilution assay (Table VI); assay type: cell-based; details: Klebsiella aerogenes; E. aerogenes EB17; agar dilution; read-out: MIC
Method: as §1

Enterobacter cloacae EB5 = assay: MIC, standard agar-dilution assay (Table VI); assay type: cell-based; details: E. cloacae EB5, agar dilution, read-out: MIC
Method: as §1

[17] = tested on: Klebsiella pneumoniae X68; assay: MIC, standard agar-dilution assay (Table VI); assay type: cell-based; details: K. pneumoniae X68, agar dilution, read-out: MIC
Method: as §1

Proteus inconstans PR33 = assay: MIC, standard agar-dilution assay (Table VI); assay type: cell-based; details: Providencia alcalifaciens; P. inconstans PR33; agar dilution; read-out: MIC
Method: as §1

Proteus morganii PR15 = assay: MIC, standard agar-dilution assay (Table VI); assay type: cell-based; details: Morganella morganii; P. morganii PR15; agar dilution; read-out: MIC
Method: as §1

Proteus rettgeri C24 = assay: MIC, standard agar-dilution assay (Table VI); assay type: cell-based; details: Providencia rettgeri, P. rettgeri C24
Method: as §1

Proteus rettgeri PR7 = assay: MIC, standard agar-dilution assay (Table VI); assay type: cell-based; details: Providencia rettgeri; P. rettgeri PR7; agar dilution; read-out: MIC
Method: as §1

[18] = tested on: Pseudomonas aeruginosa Ps18; assay: MIC, standard agar-dilution assay (Table VI); assay type: cell-based; details: P. aeruginosa Ps18, agar dilution, read-out: MIC
Method: as §1

[19] = tested on: Pseudomonas aeruginosa X239; assay: MIC, standard agar-dilution assay (Table VI); assay type: cell-based; details: P. aeruginosa X239, agar dilution, read-out: MIC
Method: as §1

[20] = tested on: Pseudomonas aeruginosa X528; assay: MIC, standard agar-dilution assay (Table VI); assay type: cell-based; details: X528
Method: as §1

[21] = tested on: Salmonella heidelberg X514; assay: MIC, standard agar-dilution assay (Table VI); assay type: cell-based; details: Salmonella enterica; S. heidelberg X514; agar dilution; read-out: MIC
Method: as §1

Salmonella typhi 1335 = assay: MIC, standard agar-dilution assay (Table VI); assay type: cell-based; details: Salmonella enterica
Method: as §1

Serratia marcescens SE3 = assay: MIC, standard agar-dilution assay (Table VI); assay type: cell-based; details: S. marcescens SE3, agar dilution, read-out: MIC
Method: as §1

Serratia marcescens X99 = assay: MIC, standard agar-dilution assay (Table VI); assay type: cell-based; details: S. marcescens X99, agar dilution, read-out: MIC
Method: as §1

Mycoplasma gallisepticum = assay: MIC, broth-dilution microtiter test (Table VII); assay type: cell-based; details: Mycoplasmoides gallisepticum
Method: as §1

Mycoplasma hyorhinis = assay: MIC, broth-dilution microtiter test (Table VII); assay type: cell-based; details: M. hyorhinis; broth-dilution microtiter; read-out: MIC
Method: as §1

Mycoplasma synoviae = assay: MIC, broth-dilution microtiter test (Table VII); assay type: cell-based; details: Mycoplasmopsis synoviae
Method: as §1

[22] = tested on: Pasteurella hemolytica 22C; assay: MIC, broth-dilution microtiter test (Table VII); assay type: cell-based; details: Pasteurella, P. hemolytica 22C, read-out: MIC
Method: as §1

[23] = tested on: Pasteurella hemolytica 23C; assay: MIC, broth-dilution microtiter test (Table VII); assay type: cell-based; details: Pasteurella, P. hemolytica 23C, read-out: MIC
Method: as §1

[24] = tested on: Pasteurella hemolytica 41D; assay: MIC, broth-dilution microtiter test (Table VII); assay type: cell-based; details: Pasteurella, P. hemolytica 41D, read-out: MIC
Method: as §1

[25] = tested on: Pasteurella multocida 17E; assay: MIC, broth-dilution microtiter test (Table VII); assay type: cell-based; details: Pasteurella multocida, 17E
Method: as §1

[26] = tested on: Pasteurella multocida 22A; assay: MIC, broth-dilution microtiter test (Table VII); assay type: cell-based; details: Pasteurella multocida, 22A
Method: as §1

[27] = tested on: Pasteurella multocida 40G; assay: MIC, broth-dilution microtiter test (Table VII); assay type: cell-based; details: Pasteurella multocida, 40G
Method: as §1

[28] = tested on: Pasteurella multocida 60A; assay: MIC, broth-dilution microtiter test (Table VII); assay type: cell-based; details: Pasteurella multocida, 60A
Method: as §1

[29] = tested on: Pasteurella multocida 68C; assay: MIC, broth-dilution microtiter test (Table VII); assay type: cell-based; details: Pasteurella multocida, 68C
Method: as §1

Staphylococcus aureus = assay: MIC, broth-dilution microtiter test (Table VII); assay type: cell-based; details: Staphylococcus aureus
Method: as §1

Streptococcus sp. 80 = assay: MIC, broth-dilution microtiter test (Table VII); assay type: cell-based; details: Streptococcus, SP.80
Method: as §1

[30] = tested on: Streptococcus pyogenes C203; assay: ED50 in mice experimentally infected with S. pyogenes C203 (Table VIII); assay type: in vivo
Method: The C-23 modified derivatives of OMT of this invention have shown in vivo antimicrobial activity against experimental infections. When two doses of test compound were administered to mice experimentally infected with a gram-positive bacterium, S. pyogenes C203, the activity observed was measured as an ED50 value [effective dose in mg/kg to protect 50% of the test animals: see Warren Wick, et al., J. Bacteriol. 81, 233-235 (1961)].

With `CCC1OC(=O)CC(O)C(C)C(OC2OC(C)C(O)C(N(C)C)C2O)C(CC=O)CC(C)C(=O)C=CC(C)(OC)C2CC12` (stereo not shown) [Compound 17] the MIC (Escherichia coli EC14) was > 128 µg/mL, the MIC (Escherichia coli N10) was > 128 µg/mL and the MIC [1] was > 128 µg/mL. The MIC [2] was 16 µg/mL (≈ 26.2 µM), the MIC (Shigella sonnei N9) was > 128 µg/mL and the MIC [3] was 2 µg/mL (≈ 3.27 µM). The MIC [4] was 2 µg/mL (≈ 3.27 µM), the MIC [5] was 2 µg/mL (≈ 3.27 µM) and the MIC [6] was 2 µg/mL (≈ 3.27 µM). It also gave an MIC [7] of 2 µg/mL (≈ 3.27 µM), an MIC [8] of 2 µg/mL (≈ 3.27 µM) and an MIC (Streptococcus Group 9960) of 2 µg/mL (≈ 3.27 µM). It also gave an MIC [9] of 2 µg/mL (≈ 3.27 µM), an MIC (Escherichia coli TEM) of 64 µg/mL (≈ 105 µM) and an MIC [10] of 8 µg/mL (≈ 13.1 µM). It also gave an MIC [11] of 8 µg/mL (≈ 13.1 µM), an MIC [12] of 1 µg/mL (≈ 1.63 µM) and an MIC [13] of 0.25 µg/mL (≈ 0.409 µM). For the same compound, the MIC [14] was > 128 µg/mL, the MIC [15] was > 128 µg/mL and the MIC [16] was > 128 µg/mL. The MIC (Enterobacter cloacae EB5) was > 128 µg/mL, the MIC [17] was > 128 µg/mL and the MIC (Proteus inconstans PR33) was > 128 µg/mL. The MIC (Proteus morganii PR15) was > 128 µg/mL, the MIC (Proteus rettgeri C24) was > 128 µg/mL and the MIC (Proteus rettgeri PR7) was > 128 µg/mL. For the same compound, the MIC [18] was > 128 µg/mL, the MIC [19] was > 128 µg/mL and the MIC [20] was 64 µg/mL (≈ 105 µM). The MIC [21] was > 128 µg/mL, the MIC (Salmonella typhi 1335) was > 128 µg/mL and the MIC (Serratia marcescens SE3) was > 128 µg/mL. For the same compound, the MIC (Serratia marcescens X99) was > 128 µg/mL, the MIC (Mycoplasma gallisepticum) was 0.78 µg/mL (≈ 1.27 µM) and the MIC (Mycoplasma hyorhinis) was 25 µg/mL (≈ 40.9 µM). It also gave an MIC (Mycoplasma synoviae) of 1.56 µg/mL (≈ 2.55 µM), an MIC [22] of 25 µg/mL (≈ 40.9 µM) and an MIC [23] of 25 µg/mL (≈ 40.9 µM). The MIC [24] was 25 µg/mL (≈ 40.9 µM), the MIC [25] was 6.25 µg/mL (≈ 10.2 µM) and the MIC [26] was 6.25 µg/mL (≈ 10.2 µM). The MIC [27] was 6.25 µg/mL (≈ 10.2 µM), the MIC [28] was 12.5 µg/mL (≈ 20.4 µM) and the MIC [29] was 6.25 µg/mL (≈ 10.2 µM). The MIC (Staphylococcus aureus) was 3.12 µg/mL (≈ 5.1 µM), the MIC (Streptococcus sp. 80) was 1.56 µg/mL (≈ 2.55 µM) and the ED50 ([30]; C203, po, read-out: ED50, Oral) was > 100 mg/kg. For the same compound, the ED50 ([30]; C203, sc, read-out: ED50, Subcutaneous) was > 25 mg/kg.
